From US10851073B2, “Protein tyrosine phosphatase inhibitors and methods of use thereof” (Calico Life Sciences LLC, priority 2019, dated 2020) come the findings set out here.

The term IC50 denotes the concentration needed to halve the response being measured.

Where only a bound is given, the exact number is not on record here.

Test [1] concerns the target T1, His tagged PTPN2 (TC45) protein (Homo sapiens, UniProt P17706).
T1 construct: made in house
T1 sequence (P17706 with tags, fused parts or gaps isoform P17706-2): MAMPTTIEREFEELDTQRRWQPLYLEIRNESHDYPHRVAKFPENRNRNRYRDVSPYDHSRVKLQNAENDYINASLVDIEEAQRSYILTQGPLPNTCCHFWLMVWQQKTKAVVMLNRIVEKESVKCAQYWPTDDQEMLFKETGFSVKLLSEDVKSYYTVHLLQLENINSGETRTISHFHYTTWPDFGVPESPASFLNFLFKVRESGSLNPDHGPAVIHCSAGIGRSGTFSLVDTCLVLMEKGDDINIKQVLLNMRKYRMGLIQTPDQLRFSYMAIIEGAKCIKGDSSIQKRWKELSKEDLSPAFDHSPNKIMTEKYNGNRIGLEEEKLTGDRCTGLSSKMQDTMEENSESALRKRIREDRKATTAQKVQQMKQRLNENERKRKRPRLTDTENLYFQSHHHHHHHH
The test can be described thus: Mobility shift assay used to determine potency of PTPN2 inhibitors. The note with it: enzyme 0.5 nM, substrate 2 μM; read-out: PTPN2 MSA IC50. It is filed as biochemical. In a few lines: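 Enzyme (0.5 nM) preincubated with compound (12-point, 1:3 dilution) 10 min at room temperature in 50 mM HEPES pH 7.5, 1 mM EGTA, 10 mM EDTA, 0.01% Tween 20, 2 mM DTT; OG488-labelled phospho-insulin-receptor peptide substrate (2 μM) added for 10 min, then quenched. Microfluidic mobility shift (ex 488/em 530 nm) gave % conversion; IC50 from % inhibition.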

Test [2] deals with T2, His tagged full-length PTPN1 protein (Homo sapiens, UniProt P18031).
T2 construct: made in house
T2 sequence (P18031 with tags, fused parts or gaps): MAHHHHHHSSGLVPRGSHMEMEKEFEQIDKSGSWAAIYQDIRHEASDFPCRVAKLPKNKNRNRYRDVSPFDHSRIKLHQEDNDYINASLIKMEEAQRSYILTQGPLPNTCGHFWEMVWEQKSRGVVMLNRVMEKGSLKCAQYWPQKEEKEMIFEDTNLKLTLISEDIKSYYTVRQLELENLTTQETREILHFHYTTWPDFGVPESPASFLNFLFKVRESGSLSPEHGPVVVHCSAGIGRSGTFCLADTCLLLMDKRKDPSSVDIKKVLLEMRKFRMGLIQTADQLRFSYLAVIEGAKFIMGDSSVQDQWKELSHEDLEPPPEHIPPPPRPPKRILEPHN
Put plainly: Mobility shift assay (MSA) used to determine potency of PTPN1 inhibitors. The format is biochemical. The note with it: enzyme 0.5 nM, substrate 2 μM. The essentials: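 Full-length His-tagged human PTPN1 (0.5 nM) was preincubated 10 min at room temperature with compound (12-point, 1:3 dilution) in HEPES pH 7.5 buffer with EGTA, EDTA, Tween 20 and DTT. A 2 μM fluorescent phospho-insulin receptor peptide was then added for 10 min before quench. Mobility-shift % conversion gave % inhibition and IC50.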

As to `CC(C)(CCN[C@@H]1CCc2cc(O)c(N3CC(=O)NS3(=O)=O)c(F)c2C1)C(F)(F)F` (single isomer, unassigned) [Compound 177], the results for the IC50 in test [1] and in test [2] were less than 1 nM and 1 to 10 nM, respectively.

As for `CC(C)CCN[C@@H]1CCc2cc(O)c(N3CC(=O)NS3(=O)=O)c(F)c2C1` (single isomer, unassigned) [Compound 118], the IC50 in test [1] and in test [2] was 1 to 10 nM in each case.

In the case of `O=C1CN(c2c(O)cc3c(c2F)C[C@H](NCCC(F)F)CC3)S(=O)(=O)N1` (single isomer, unassigned) [Compound 260], the IC50 in test [1] and in test [2] was 1 to 10 nM in each case.

For the compound `O=C1CN(c2c(O)cc3c(c2F)C[C@H](NCCCC(F)F)CC3)S(=O)(=O)N1` (single isomer, unassigned) [Compound 199], the IC50 in test [1] and in test [2] was less than 1 nM each time.

`O=C1CN(c2c(O)cc3c(c2F)C[C@H](NCCC2CC2)CC3)S(=O)(=O)N1` (single isomer, unassigned) [Compound 133]: the IC50 in test [1] and in test [2] was 1 to 10 nM throughout.

Take `O=C1CN(c2c(O)cc3c(c2F)C[C@@H](NCCC(F)F)CC3)S(=O)(=O)N1` (single isomer, unassigned) [Compound 259]: the IC50 in test [1] and in test [2] was 10 to 100 nM throughout.
